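96-well plates; 48 h exposure; 5 concentrations. Endpoints by linear interpolation between flanking doses. Not reached: highest tested concentration assigned. TGI denotes the concentration required for complete inhibition of growth.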
Assays:
Assay in all cases: inhibition of tumour cell growth, NCI panel, 48 h
786-0 renal = tested on: 786-0 renal
A498 renal = tested on: A498 renal
A549 NSCLC = tested on: A549 NSCLC
ACHN renal = tested on: ACHN renal
BT-549 breast = tested on: BT-549 breast
CAKI-1 renal = tested on: CAKI-1 renal
CCRF-CEM leukemia = tested on: CCRF-CEM leukemia
COLO 205 colon = tested on: COLO 205 colon
DU-145 prostate = tested on: DU-145 prostate
EKVX NSCLC = tested on: EKVX NSCLC
HCT-116 colon = tested on: HCT-116 colon
HL-60(TB) leukemia = tested on: HL-60(TB) leukemia
HOP-62 NSCLC = tested on: HOP-62 NSCLC
HOP-92 NSCLC = tested on: HOP-92 NSCLC
HT29 colon = tested on: HT29 colon
IGROV1 ovarian = tested on: IGROV1 ovarian
K-562 leukemia = tested on: K-562 leukemia
KM12 colon = tested on: KM12 colon
LOX IMVI melanoma = tested on: LOX IMVI melanoma
M14 melanoma = tested on: M14 melanoma
MALME-3M melanoma = tested on: MALME-3M melanoma
MCF7 breast = tested on: MCF7 breast
MDA-MB-231 breast = tested on: MDA-MB-231 breast
MDA-MB-435 = tested on: MDA-MB-435
MDA-N = tested on: MDA-N
MOLT-4 leukemia = tested on: MOLT-4 leukemia
NCI-H226 lung = tested on: NCI-H226 lung
NCI-H23 lung = tested on: NCI-H23 lung
NCI-H522 lung = tested on: NCI-H522 lung
NCI/ADR-RES ovarian = tested on: NCI/ADR-RES ovarian
OVCAR-3 ovarian = tested on: OVCAR-3 ovarian
OVCAR-5 ovarian = tested on: OVCAR-5 ovarian
OVCAR-8 ovarian = tested on: OVCAR-8 ovarian
PC-3 prostate = tested on: PC-3 prostate
RPMI-8226 leukemia = tested on: RPMI-8226 leukemia
RXF 393 renal = tested on: RXF 393 renal
SF-295 CNS = tested on: SF-295 CNS
SF-539 CNS = tested on: SF-539 CNS
SK-MEL-2 melanoma = tested on: SK-MEL-2 melanoma
SK-MEL-28 melanoma = tested on: SK-MEL-28 melanoma
SK-MEL-5 melanoma = tested on: SK-MEL-5 melanoma
SK-OV-3 ovarian = tested on: SK-OV-3 ovarian
SN12C renal = tested on: SN12C renal
SNB-19 CNS = tested on: SNB-19 CNS
SNB-75 CNS = tested on: SNB-75 CNS
SR leukemia = tested on: SR leukemia
SW-620 colon = tested on: SW-620 colon
U251 CNS = tested on: U251 CNS
UACC-257 melanoma = tested on: UACC-257 melanoma
UACC-62 melanoma = tested on: UACC-62 melanoma
UO-31 renal = tested on: UO-31 renal

Q: With `CCOc1ccc(N2C(=O)NC3(c4ccccc4)N(C)C(=O)N(C)C23c2ccccc2)cc1` (stereo unspecified) as the molecule, how does the TGI (786-0 renal) read?
A: > 100 µM

Q: What about the TGI (A498 renal) of the same molecule?
A: > 100 µM

Q: And the TGI (A549 NSCLC)?
A: > 100 µM

Q: And the TGI (ACHN renal)?
A: > 100 µM

Q: And the TGI (BT-549 breast)?
A: > 100 µM

Q: And the TGI (CAKI-1 renal)?
A: > 100 µM

Q: What about the TGI (CCRF-CEM leukemia) of the same molecule?
A: > 100 µM

Q: And the TGI (COLO 205 colon)?
A: > 100 µM

Q: What about the TGI (DU-145 prostate) of the same molecule?
A: > 100 µM

Q: And the TGI (EKVX NSCLC)?
A: > 100 µM

Q: And the TGI (HCT-116 colon)?
A: > 100 µM

Q: What about the TGI (HL-60(TB) leukemia) of the same molecule?
A: > 100 µM

Q: And the TGI (HOP-62 NSCLC)?
A: > 100 µM

Q: And the TGI (HOP-92 NSCLC)?
A: > 100 µM

Q: And the TGI (HT29 colon)?
A: > 100 µM

Q: What about the TGI (IGROV1 ovarian) of the same molecule?
A: > 100 µM

Q: What about the TGI (K-562 leukemia) of the same molecule?
A: > 100 µM

Q: What about the TGI (KM12 colon) of the same molecule?
A: > 100 µM

Q: And the TGI (LOX IMVI melanoma)?
A: > 100 µM

Q: What about the TGI (M14 melanoma) of the same molecule?
A: > 100 µM

Q: What about the TGI (MALME-3M melanoma) of the same molecule?
A: > 100 µM

Q: What about the TGI (MCF7 breast) of the same molecule?
A: > 100 µM

Q: And the TGI (MDA-MB-231 breast)?
A: > 100 µM

Q: And the TGI (MDA-MB-435)?
A: > 100 µM

Q: And the TGI (MDA-N)?
A: > 100 µM

Q: And the TGI (MOLT-4 leukemia)?
A: > 100 µM

Q: What about the TGI (NCI-H226 lung) of the same molecule?
A: > 100 µM

Q: What about the TGI (NCI-H23 lung) of the same molecule?
A: > 100 µM

Q: And the TGI (NCI-H522 lung)?
A: > 100 µM

Q: And the TGI (NCI/ADR-RES ovarian)?
A: > 100 µM

Q: What about the TGI (OVCAR-3 ovarian) of the same molecule?
A: > 100 µM

Q: What about the TGI (OVCAR-5 ovarian) of the same molecule?
A: > 100 µM

Q: And the TGI (OVCAR-8 ovarian)?
A: > 100 µM

Q: And the TGI (PC-3 prostate)?
A: > 100 µM

Q: And the TGI (RPMI-8226 leukemia)?
A: > 100 µM

Q: And the TGI (RXF 393 renal)?
A: > 100 µM

Q: And the TGI (SF-295 CNS)?
A: > 100 µM

Q: What about the TGI (SF-539 CNS) of the same molecule?
A: > 100 µM

Q: What about the TGI (SK-MEL-2 melanoma) of the same molecule?
A: > 100 µM

Q: And the TGI (SK-MEL-28 melanoma)?
A: > 100 µM

Q: What about the TGI (SK-MEL-5 melanoma) of the same molecule?
A: > 100 µM

Q: And the TGI (SK-OV-3 ovarian)?
A: > 100 µM

Q: And the TGI (SN12C renal)?
A: > 100 µM

Q: What about the TGI (SNB-19 CNS) of the same molecule?
A: > 100 µM

Q: And the TGI (SNB-75 CNS)?
A: 63.5 µM

Q: And the TGI (SR leukemia)?
A: > 100 µM

Q: What about the TGI (SW-620 colon) of the same molecule?
A: > 100 µM

Q: And the TGI (U251 CNS)?
A: > 100 µM

Q: What about the TGI (UACC-257 melanoma) of the same molecule?
A: > 100 µM

Q: And the TGI (UACC-62 melanoma)?
A: > 100 µM

Q: And the TGI (UO-31 renal)?
A: > 100 µM

— PubChem BioAssay (NCI)
